This is an account of results in patent US5780653A, “Nitrophenyl, 10-deacetylated substituted taxol derivatives as dual functional cytotoxic/radiosensitizers” (Vivorx Pharmaceuticals, Inc., priority 1995, dated 1998).

Data set [1] concerns breast adenocarcinoma cell line MCF-7. Description: In vitro cytotoxicity of paclitaxel derivatives (macroscopic colony formation). The data set is classed as cell-based. Here is the method: Taxol derivatives were assayed for their cytotoxic activities on tumor cell lines in vitro. The breast adenocarcinoma cell line MCF-7 was chosen as a model for the cytotoxicity assay. The cell line was maintained in RPMI 1640 medium supplemented with 10% fetal bovine serum. For the cell survival experiments, a number of 100 mm petri dishes were plated with 5×10^5 cells. Exponentially growing cells were exposed to paclitaxel or paclitaxel derivatives at various concentrations 24 hours later. After exposure to paclitaxel and derivatives for various times, the cells were rinsed, trypsinized and washed with medium. The cells were resuspended as single cell suspensions, counted with a particle counter, plated and incubated for macroscopic colony formation. Following a one to two week incubation, the colonies were fixed with methanol/acetic acid, stained with crystal violet and colonies with more than 50 cells counted. […] The survival was reported as the fraction of cells surviving after exposure to paclitaxel or derivatives thereof. As an example, the cytotoxicity of the derivative synthesized in Example 9, i.e., 3'-Desphenyl-3'-(4-nitrophenyl)-N-debenzoyl-N-(t-butoxycarbonyl)-10-deacetyltaxol, is reported herein.

In the next data set the test system is tubulin. As to the kind of experiment: In vitro microtubule assembly of paclitaxel derivatives (turbidity, absorbance at 350 nm). The data set is classed as biochemical. Particulars: for absorbance (at 350 nm), tubulin polymerization at 10° C. / absorbance (at 350 nm), tubulin polymerization at 37° C.: 10 μM tubulin, 10 μM taxol or derivative; for absorbance (at 350 nm), tubulin polymerization at 10° C.: pH 6.8, 10° C.; for absorbance (at 350 nm), tubulin polymerization at 37° C.: pH 6.8, 37° C. The text has this: Paclitaxel inhibits cell replication in the mitotic phase of the cell cycle by promoting polymerization and stabilization of microtubules. Microtubules are polymers of tubulin in dynamic equilibrium with tubulin heterodimers that are composed of alpha and beta protein subunits. Unlike other antimicrotubule agents, such as the vinca alkaloids (that induce microtubule disassembly), paclitaxel shifts the equilibrium towards microtubule assembly. Paclitaxel-induced microtubules are excessively stable, thereby inhibiting the dynamic reorganization of the microtubule network. The cytotoxic properties of paclitaxel are caused by its unique disruptive effects on microtubules. Thus the activity of taxol or taxol analogs and derivatives may be assessed in vitro by their ability to polymerize tubulin into microtubules (Chaudhary et al. Journal of the American Chemical Society 116:4097-4098 (1994). The polymerization of tubulin is accompanied by a concomitant increase in solution turbidity associated with the formation of microtubules. This increase in turbidity can be assayed spectrophotometrically.
Thus, 10 μM tubulin was dissolved in 0.1M MES buffer containing 100 μM GTP and 0.5 mM MgCl2 with a final pH of 6.8. 10 μM tubulin was added to the buffer. 10 μM of taxol (or taxol derivatives) was added to the buffer at 0° C. and the absorbance of the sample measured at 350 nm as the sample temperature increased rapidly to 37° C. with the aid of a circulating water bath connected to the sample chamber of the spectrophotometer. The maximum absorbance of the sample was measured and compared to that of taxol as a control to determine any change in activity of the paclitaxel derivatives.

A further data set relates to microtubule. The note with it: compared with paclitaxel; cited from earlier work.
The conditions of data set [2]: compared with paclitaxel; cited from earlier work.
Data set [3] relates to grade III human astrocytoma cell line, G18. Particulars: paclitaxel pretreatment and gamma irradiation; cited from earlier work.
Data set [4] has as its system HL-60 human leukemic cell line. The note with it: cited from earlier work.
The subject of data set [5] is three human ovarian cancer cell lines. The note with it: cited from earlier work.
Data set [6] relates to cervical carcinoma cell lines. Particulars: cited from earlier work.
The subject of data set [7] is human breast and lung cell lines. Particulars: cited from earlier work.
The conditions of data set [8]: intravenous infusion every 2-3 weeks, patients; cited from earlier work.
The conditions of data set [9]: cited from earlier work.
Another data set deals with cultured mammalian cells. Particulars: cited from earlier work.
The test system of another data set is central nervous system. The note with it: large-scale clinical trials; cited from earlier work.
A further data set concerns rodent tumors. Particulars: some rodent tumors; cited from earlier work.

Regarding “3'-Desphenyl-3'-(4-nitrophenyl)-N-debenzoyl-N-(isopropoxycarbonyl)-10-deacetyltaxol [Example 9]”, the “surviving fraction of MCF-7 cells” value in data set [1] (10 nM, 24 hours) was 2×10^-3. Also, the “increase in cytotoxicity over unmodified taxol” value in data set [1] (MCF-7, 10 nM, 24 hours) is given as 30 fold.
For the compound `CC(=O)O[C@@]12CO[C@@H]1C[C@H](O)[C@@]1(C)C(=O)[C@H](O)C3=C(C)[C@@H](OC(=O)C(O)C(NC(=O)OC(C)(C)C)c4ccc([N+](=O)[O-])o4)C[C@@](O)([C@@H](OC(=O)c4ccccc4)[C@H]21)C3(C)C` (some centres unmarked) [Example 6], in the data set on tubulin, the “absorbance (at 350 nm), tubulin polymerization at 10° C.” value is reported as 0.37 and the “absorbance (at 350 nm), tubulin polymerization at 37° C.” value stood at 0.71. In addition, the “tubulin polymerization activity relative to taxol (ratio of absorbances)” value in the data set on tubulin (37° C.) is listed as 2.4 times that of taxol. For the same compound, the “activity in tubulin assembly compared with unmodified taxol” value in the data set on tubulin (both at low temperature and at physiological temperatures) is on record as “substantially more active in tubulin assembly than unmodified taxol”.
As for `CC(=O)O[C@@]12CO[C@@H]1C[C@H](O)[C@@]1(C)C(=O)[C@H](O)C3=C(C)[C@@H](OC(=O)[C@H](O)[C@@H](NC(=O)OC(C)(C)C)c4ccccc4)C[C@@](O)([C@@H](OC(=O)c4ccccc4)[C@H]21)C3(C)C` [docetaxel], in the data set on microtubule, the “microtubule assembly activity” value was “more active than paclitaxel”. The “cytotoxicity” value in data set [2] is “more active than paclitaxel”.
Take `CC(=O)O[C@H]1C(=O)[C@@]2(C)[C@H]([C@H](OC(=O)c3ccccc3)[C@]3(O)C[C@H](OC(=O)[C@H](O)[C@@H](NC(=O)c4ccccc4)c4ccccc4)C(C)=C1C3(C)C)[C@]1(OC(C)=O)CO[C@@H]1C[C@@H]2O` [paclitaxel]: the “enhancement of radiosensitivity, G18” value in data set [3] is given as “significant enhancement of radiosensitivity”. For the same compound, in data set [4], the “radiosensitization, HL-60” value is “radiosensitization”. Also, the “radiosensitization, human ovarian cancer cell lines” value in data set [5] is reported as “radiosensitization”. The “enhancement in radiosensitization, cervical carcinoma” value in data set [6] is recorded as “have not observed an enhancement in radiosensitization”. The “enhancement in radiosensitization, human breast and lung” value in data set [7] is recorded as “have not observed an enhancement in radiosensitization”. Further, in the data set on tubulin, the “absorbance (at 350 nm), tubulin polymerization at 10° C.” value was 0.0 and the “absorbance (at 350 nm), tubulin polymerization at 37° C.” value was 0.295. Also, the “polymerization of tubulin at 10° C.” value with tubulin (taxol (10 μM), 10° C.) was “would not polymerize tubulin”. Besides, in the data set on tubulin (taxol (10 μM), 37° C.), the “polymerization of tubulin at 37° C.” value is reported as “would promote polymerization”. In data set [8], the serum half-life result is “up to 19 h”. Further, in data set [1] (Homo sapiens, MCF7, 24 h, read-out: surviving fraction of MCF-7 cells), the viability at 0.01 µM was 6%. The “in vivo radiopotentiation” value in [9] is listed as “potent in vivo radiopotentiating agent”.
In the case of `COCC(O)Cn1ccnc1[N+](=O)[O-]` (centres unmarked) [misonidazole], the “hypoxic-cell sensitization, cultured mammalian cells” value in the data set on cultured mammalian cells is recorded as “excellent hypoxic-cell sensitizer”. The “toxicity to the central nervous system” value in the data set with central nervous system is reported as “toxic to the central nervous system”. For the same compound, in the data set on rodent tumors, the “hypoxic-cell sensitization, rodent tumors” value is “excellent hypoxic-cell sensitizer”.
